Results on one compound are retold here after US20250188123A1, “PROTEASE INHIBITORS” (Regents of the University of Minnesota, priority 2022, published 2025).

Format in all cases: biochemical
For one assay, the target named is thrombin (Homo sapiens, UniProt P00734). Nature of the assay: Activity at thrombin proteolytic enzyme.
Another assay addresses T1, Human recombinant Casp9 (Homo sapiens, UniProt P55211).
T1 construct: purchased BioVision (Milpitas/CA, USA)
T1 sequence (P55211 1-416): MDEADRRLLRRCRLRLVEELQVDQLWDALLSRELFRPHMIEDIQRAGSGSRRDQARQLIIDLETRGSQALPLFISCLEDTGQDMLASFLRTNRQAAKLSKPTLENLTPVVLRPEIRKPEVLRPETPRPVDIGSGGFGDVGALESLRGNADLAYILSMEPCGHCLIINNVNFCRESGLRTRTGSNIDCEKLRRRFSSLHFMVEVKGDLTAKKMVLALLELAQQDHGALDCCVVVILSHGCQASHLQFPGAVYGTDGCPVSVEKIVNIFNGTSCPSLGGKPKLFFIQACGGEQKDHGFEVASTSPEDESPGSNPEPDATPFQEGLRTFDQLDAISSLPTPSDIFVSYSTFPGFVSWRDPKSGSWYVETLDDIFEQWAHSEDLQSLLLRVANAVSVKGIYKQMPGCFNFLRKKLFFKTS
Nature of the assay: In vitro caspase panel assay, Casp9. The following applies: Casp2 over Casp9, caspase panel. The source says:
(§1) Human recombinant Casp1, 6, 7, and 9 were purchased from BioVision (Milpitas/CA, USA). AFC fluorogenic substrates and control peptides (AcYVAD-CHO, AcVDVAD-CHO, AcDEVD-CHO, AcVEID-CHO, and AcLEHD-CHO) were purchased from Bachem (Torrance/CA, USA). The pET23b vector encoding human caspase-3 was a gift of Dr. Michelle Arkin at University of California, San Francisco. Expression and purification of Casp3 was guided by previously described protocols (Denault J-B, Salvesen G S., Current Protocols in Protein Science, 2002, 30(1), 21.13. 1-21.13. 15). Briefly, the plasmid was transformed into E. coli Rosetta 2 pLyss DE3 cells that were cultured at 1 L scale in shake flasks. […] The typical yield for the expression, isolation, and purification was approximately 3 mg/L. The DNA encoding human caspase-2 (hCASP2, amino acids 170-452, free of the N-terminal caspase activation and recruitment domain) open reading frame (ORF) was amplified via polymerase chain reaction (PCR) from full-length hCASP2 cDNA (Origene, Rockville, MD; Cat #SC321316) using following primers: forward, 5′-[…]-3′; reverse, 5′-[…]-3′. […] Proteins were stored in 1× phosphate-buffered saline (pH 7.4) at 10 mg/mL (concentration determined using a BCA assay (Thermo Fisher Scientific)), −80° C. until further use. […]

The next assay concerns the target T2, Human recombinant Casp1 (Homo sapiens, UniProt P29466).
T2 construct: purchased BioVision (Milpitas/CA, USA)
T2 sequence (P29466 120-404): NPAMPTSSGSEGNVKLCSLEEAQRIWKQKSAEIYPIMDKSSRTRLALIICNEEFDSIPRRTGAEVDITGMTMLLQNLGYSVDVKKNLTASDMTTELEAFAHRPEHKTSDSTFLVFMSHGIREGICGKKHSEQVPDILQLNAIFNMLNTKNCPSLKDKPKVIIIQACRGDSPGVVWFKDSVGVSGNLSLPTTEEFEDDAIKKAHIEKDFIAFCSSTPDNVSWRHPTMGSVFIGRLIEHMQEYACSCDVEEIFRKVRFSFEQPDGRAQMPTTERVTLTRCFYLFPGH
Description: In vitro caspase panel assay, Casp1. The conditions noted are these: Casp2 over Casp1, caspase panel.
Text: as §1

The target of the next assay is T3, Human recombinant Casp6 (Homo sapiens, UniProt P55212).
T3 construct: purchased BioVision (Milpitas/CA, USA)
T3 sequence (P55212 24-293): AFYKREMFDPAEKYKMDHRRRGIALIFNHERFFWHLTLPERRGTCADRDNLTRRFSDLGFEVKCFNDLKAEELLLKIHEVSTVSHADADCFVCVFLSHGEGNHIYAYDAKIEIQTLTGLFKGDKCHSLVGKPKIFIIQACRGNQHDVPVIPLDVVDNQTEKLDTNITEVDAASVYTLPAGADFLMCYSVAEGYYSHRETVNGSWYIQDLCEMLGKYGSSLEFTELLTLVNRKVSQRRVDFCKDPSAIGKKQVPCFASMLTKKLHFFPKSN
Description: In vitro caspase panel assay, Casp6. The conditions noted are these: Casp2 over Casp6, caspase panel.
Text: as §1

In the case of `Cc1ccc2c(c1)CCN(C(=O)[C@@H](NC(=O)[C@H](CCCC(=O)O)NC(=O)C1Cc3ccccc3N1)C(C)C)[C@@H]2C(=O)N[C@H](C#N)CC(=O)O` (stereo partly drawn) [Compound 1, (8)-6-(((S)-1-((8)-1-(((S)-2-carboxy-1-cyanoethyl)carbamoyl)-6-methyl-3,4-dihydroisoquinolin-2(1H)-yl)-3-methyl-1-oxobutan-2-yl)amino)-5-((S)-indoline-2-carboxamido)-6-oxohexanoic acid], the activity at thrombin entry on thrombin is recorded as “weak activity”. On Human recombinant Casp9, the “selective versus Casp9” value is listed as above 2000 fold. Also, at Human recombinant Casp1, the “selective versus Casp1” value is recorded as above 2000 fold. In addition, the “selective versus Casp6” value at Human recombinant Casp6 is listed as above 2000 fold.
